Experimental data from patent US20240334931A1, “NEMATICIDAL COMPOSITION” (ISHIHARA SANGYO KAISHA, LTD., priority 2021, published 2024).

What was measured:
Type in all cases: in vivo
[1] = test system: soybean cyst nematode (Heterodera glycines); assay: Test on effects against soybean cyst nematode: treated contaminated soil, soybean pot test (Test Example 3); set-up: key: 0: No parasitic cyst observed on the roots at all; 1: Parasitic cyst observed to a slight degree; 2: Parasitic cyst observed to a moderate degree; 3: Parasitic cyst observed to a heavy degree; 4: Parasitic cyst observed densely on the entire roots; details: 10 ml poured to 200 ml contaminated soil, about one month after sowing
Method: . The treated soil was put into a pot, three soybean seeds were sown, and the pot was placed in a greenhouse. About one month after the sowing of the soybean seeds, the parasite index was determined based on the cyst parasite level on the roots shown in Table 7.

[2] = test system: southern root-knot nematode (Meloidogyne incognita); assay: Test on effects against southern root-knot nematode: treated contaminated soil, cucumber pot test (Test Example 1 and Comparative Test); set-up: key: 0: No knot formed on the root at all; 1: Knots formed to a slight degree; 2: Knots formed to a moderate degree; 3: Knots formed to a heavy degree; 4: Knots formed to the heaviest degree
Method: The treated soil was put into a pot, three cucumber seeds were sown, and the pot was placed in a greenhouse. Two to three weeks after the sowing of the cucumber seeds, the root knot index was determined based on the degree of formation of root knots shown in Table 5. Each composition containing Compound No. […]-192 or B-196 at a concentration of 400 ppm and the composition containing Compound No. […] [table] […] Root knot index of 2 corresponds to a state where the proportion of healthy roots is 50% or less to the entire roots, and indicates control effects to such an extent that cucumber as a crop plant to be tested cannot healthily grow.

[3] = test system: Cobb root-lesion nematode (Pratylenchus penetrans); assay: Test on effects against Cobb root-lesion nematode: treated contaminated soil, burdock pot test (Test Example 2); set-up: key: 0: No injury; 1: Slight injury; 2: Moderate injury; 3: Heavy injury; 4: Heaviest injury; details: 800 ppm, 10 ml poured to 200 ml contaminated soil, about one month after sowing
Method: . The treated soil was put into a pot, three burdock seeds were sown, and the pot was placed in a greenhouse. About one month after the sowing of the burdock seeds, the injury index was determined based on the root injury level shown in Table 6.

[4] = 400 ppm, 10 ml poured to 200 ml contaminated soil, cucumber, two to three weeks after sowing
[5] = Comparative Test, active ingredient concentration 50 ppm, otherwise as Test Example 1 (cucumber)

Row | SMILES | parasite index ([1]; 400 ppm) | root knot index [2, 4] | parasite index ([1]; 800 ppm) | injury index [3] | root knot index [2, 5] | root knot index ([2]; […], cucumber, two to three weeks after sowing)
1 | O=CNN=C(c1ccc(F)cc1)C1(n2cnc(C(F)(F)F)n2)CC1 (single isomer, unassigned) [B-106] | 1 | 1 | – | – | – | –
2 | CC(C)(C(=NNC=O)c1ccccc1)n1ccc(C(F)(F)F)n1 [A-1, N′-(2-methyl-1-phenyl-2-(3-trifluoromethyl-1H-pyrazol-1-yl)propylidene) formhydrazide] | – | 1 | 1 | 1 | 1 | –
3 | CC(C)(C(=NNC=O)c1ccccc1)n1cnc(C(F)(F)F)n1 [A-2] | – | 1 | 1 | – | 0 | –
4 | CC(C)(C(=NNC=O)c1ccc(Cl)cc1)n1ccc(C(F)(F)F)n1 [A-89] | – | 1 | 1 | – | – | –
5 | CC(C)(C(=NNC=O)c1ccc(F)cc1)n1ccc(C(F)(F)F)n1 [A-107] | – | 1 | 1 | – | – | –
6 | CC(C)(C(=NNC=O)c1ccccc1C(F)(F)F)n1ccc(C(F)(F)F)n1 [A-260] | 1 | 1 | – | – | – | –
7 | CC(C)(C(=NNC=O)c1ccccc1OC(F)(F)F)n1cnc(C(F)(F)F)n1 [A-271] | – | 1 | 1 | – | – | –
8 | CC(C)(C(=NNC=O)c1cccc(F)c1)n1ccc(C(F)(F)F)n1 [A-274] | – | 1 | 1 | – | – | –
9 | CC(C)(C(=NNC=O)c1cccc(F)c1)n1ccc(Br)n1 [A-279] | – | 1 | 1 | – | – | –
10 | CC(C)(C(=NNC=O)c1cccc(Cl)c1)n1ccc(C(F)(F)F)n1 [A-318] | – | 1 | 1 | 1 | 1 | –
11 | CC(C)(C(=NNC=O)c1cccc(Cl)c1)n1cnc(C(F)(F)F)n1 [A-319] | – | 1 | 1 | – | – | –
12 | Cc1cccc(C(=NNC=O)C(C)(C)n2ccc(C(F)(F)F)n2)c1 [A-322] | – | 1 | 1 | – | – | –
13 | Cc1cccc(C(=NNC=O)C(C)(C)n2cnc(C(F)(F)F)n2)c1 [A-323, N′-(2-methyl-1-(3-methylphenyl)-2-(3-trifluoromethyl-1H-triazol-1-yl)propylidene) formhydrazide] | – | – | 1 | – | – | 1
14 | COc1cccc(C(=NNC=O)C(C)(C)n2ccc(C(F)(F)F)n2)c1 [A-328] | – | 1 | 1 | – | – | –
15 | CC(C)(C(=NNC=O)c1cccc(Cl)c1Cl)n1cnc(C(F)(F)F)n1 [A-333] | – | 1 | 1 | – | – | –
16 | CC(C)(C(=NNC=O)c1cc(F)ccc1Cl)n1cnc(C(F)(F)F)n1 [A-352] | – | 1 | 1 | – | – | –
17 | CC(C)(C(=NNC=O)c1cccc2c1OC(F)(F)O2)n1cnc(C(F)(F)F)n1 [A-411] | – | 1 | 1 | – | – | –
18 | CC(C)(C(=NNC=O)c1cccc2c1OC(F)(F)O2)n1ccc(C#N)n1 [A-416] | – | 1 | 1 | – | – | –
19 | O=CNN=C(c1ccccc1)C1(n2ccc(C(F)(F)F)n2)CC1 [B-1, N′-(phenyl(1-(3-trifluoromethyl-1H-pyrazol-1-yl)cyclopropyl)methylene) formhydrazide] | – | 1 | 1 | 1 | – | –
20 | Cc1ccccc1C(=NNC=O)C1(n2ccc(C(F)(F)F)n2)CC1 [B-196] | – | 1 | 1 | – | – | –
